Earlier results on 1 compound are cited in patent US20110123555A1, “PREPARATION AND UTILITY OF CCR5 INHIBITORS” (AUSPEX PHARMACEUTICALS, INC., priority 2006, published 2011).

For this data set, the system named is 200 clinically-derived pseudoviruses. Particulars: half of which are derived from viruses resistant to existing drug classes.

As for `Cc1nnc(C(C)C)n1C1CC2CCC(C1)N2CCC(NC(=O)C1CCC(F)(F)CC1)c1ccccc1` (stereo not shown) [Maraviroc], the “active in vitro against clinically-derived pseudoviruses” value is “active”.
